This passage reports pest or weed control and melting point results from patent US20010047099A1, “4-aminopicolinates and their use as herbicides” (priority 2000, published 2001).

The subject of series [1] is chickweed (Stellaria media). The experiment in a line: Postemergence herbicidal activity. Format: in vivo. Conditions: Stellaria media, post-emergence, 336 h, Table 1, visual, after 2 weeks, read-out: Post-emergent % Control STEME; for pest or weed control at 125 ppm: rate 125 ppm; for pest or weed control at 250 ppm: rate 250 ppm. Here is the method: (§1) Seeds of the desired test plant species were planted in Grace-Sierra MetroMix® 306 planting mixture, which typically has a pH of 6.0 to 6.8 and an organic matter content of about 30 percent, in plastic pots with a surface area of 64 square centimeters. When required to ensure good germination and healthy plants, a fungicide treatment and/or other chemical or physical treatment was applied. The plants were grown for 7-21 days in a greenhouse with an approximate 15 hr photoperiod which was maintained at about 23-29° C. during the day and 22-28° C. during the night. Nutrients and water were added on a regular basis and supplemental lighting was provided with overhead metal halide 1000-Watt lamps as necessary. The plants were employed for testing when they reached the first or second true leaf stage.
(§2) A weighed amount, determined by the highest rate to be tested, of each test compound was placed in a 20 mL glass vial and was dissolved in 4 mL of a 97:3 v/v (volume/volume) mixture of acetone and dimethyl sulfoxide (DMSO) to obtain concentrated stock solutions. […] The concentrated stock solutions obtained were diluted with an aqueous mixture containing acetone, water, isopropyl alcohol, DMSO, Atplus 411F crop oil concentrate, and Triton X-155 surfactant in a 48.5:39:10:1.5:1.0:0.02 v/v ratio to obtain spray solutions of known concentration. The solutions containing the highest concentration to be tested were prepared by diluting 2 mL aliquots of the stock solution with 13 mL of the mixture and lower concentrations were prepared by serial dilution of the stock solution. Approximately 1.5 mL aliquots of each solution of known concentration were sprayed evenly onto each of the test plant pots using a DeVilbiss atomizer driven by compressed air pressure of 2 to 4 psi ([…]) to obtain thorough coverage of each plant. Control plants were sprayed in the same manner with the aqueous mixture. In this test an application rate of 1 ppm results in the application of approximately 1 g/Ha.
(§3) The treated plants and control plants were placed in a greenhouse as described above and watered by sub-irrigation to prevent wash-off of the test compounds. After 2 weeks the condition of the test plants as compared with that of the untreated plants was determined visually and scored on a scale of 0 to 100 percent where 0 corresponds to no injury and 100 corresponds to complete kill.

For series [2], the system named is cocklebur (Xanthium strumarium). Nature of the series: Postemergence herbicidal activity. Conditions: Xanthium strumarium, post-emergence, 336 h, Table 1, visual, after 2 weeks, read-out: Post-emergent % Control XANST; for pest or weed control at 125 ppm: rate 125 ppm; for pest or weed control at 250 ppm: rate 250 ppm. Format: in vivo. Here is the method:
as §1, §2, §3

Series [3] deals with wild buckwheat (Polygonum convolvulus). The experiment in a line: Postemergence herbicidal activity. The format is in vivo. As to conditions: Fallopia convolvulus, post-emergence, 336 h, Table 1, visual, after 2 weeks, read-out: Post-emergent % Control POLCO; for pest or weed control at 125 ppm: rate 125 ppm; for pest or weed control at 250 ppm: rate 250 ppm. Here is the method: as §1, §2, §3

For series [4], the system named is velvetleaf (Abutilon theophrasti). Nature of the series: Preemergence herbicidal activity. Format: in vivo. Conditions: Abutilon theophrasti, 504 h, Table 6 (headed Post-emergent; text: preemergence), after 3 weeks, read-out: % Control ABUTH; for pest or weed control at 560 ppm: rate 560 ppm; for pest or weed control at 280 ppm: rate 280 ppm; for pest or weed control at 70 ppm: rate 70 ppm. The text has this:
(§4) Seeds of the desired test plant species were planted in a soil matrix prepared by mixing a loam soil (43 percent silt, 19 percent clay, and 38 percent sand, with a pH of about 8.1 and an organic matter content of bout 1.5 percent) and sand in a 70 to 30 ratio. The soil matrix was contained in plastic pots with a surface area of 113 square centimeters. When required to ensure good germination and healthy plants. a fungicide treatment and/or other chemical or physical treatment was applied.
(§5) A weighed amount, determined by the highest rate to be tested, of each test compound was placed in a 20 mL glass vial and was dissolved in 4 mL of a 97:3 v/v (volume/volume) mixture of acetone and dimethyl sulfoxide to obtain concentrated stock solutions. […] The stock solutions obtained were diluted with a 99.9:0.1 mixture of water and Tween® […] surfactant to obtain application solutions of known concentration. The solutions containing the highest concentration to be tested were prepared by diluting 2 mL aliquots of the stock solution with 15 mL of the mixture and lower concentrations were prepared by serial dilution of the stock solution. A 2.5 mL aliquot of each solution of known concentration was sprayed evenly onto the soil surface (113 sq. cm) of each seeded pot using a Cornwall 5.0 mL glass syringe fitted with a TeeJet TN-3 hollow cone nozzle to obtain thorough coverage of the soil in each pot. Control pots were sprayed in the same manner with the aqueous mixture.
(§6) The treated pots and control pots were placed in a greenhouse maintained with an approximate 15 hr photoperiod and temperatures of about 23-29° C. during the day and 22-28° C. during the night. Nutrients and water were added on a regular basis and supplemental lighting was provided with overhead metal halide 1000-Watt lamps as necessary. The water was added by top-irrigation. After 3 weeks the condition of the test plants that germinated and grew as compared with that of the untreated plants that germinated and grew was determined visually and scored on a scale of 0 to 100 percent where 0 corresponds to no injury and 100 corresponds to complete kill or no germination.

Series [5] has as its system morningglory (Ipomoea hederacea). Nature of the series: Preemergence herbicidal activity. Format: in vivo. As to conditions: Ipomoea, 504 h, Table 6 (headed Post-emergent; text: preemergence), after 3 weeks, read-out: % Control IPOHE; for pest or weed control at 560 ppm: rate 560 ppm; for pest or weed control at 280 ppm: rate 280 ppm; for pest or weed control at 70 ppm: rate 70 ppm.
Source text: as §4, §5, §6

Series [6] concerns pigweed (Amaranthus retroflexus). The experiment in a line: Preemergence herbicidal activity. The format is in vivo. As to conditions: Amaranthus retroflexus, 504 h, Table 6 (headed Post-emergent; text: preemergence), after 3 weeks, read-out: % Control AMARE; for pest or weed control at 560 ppm: rate 560 ppm; for pest or weed control at 280 ppm: rate 280 ppm; for pest or weed control at 70 ppm: rate 70 ppm.
Source text: as §4, §5, §6

In general, melting point refers to the temperature of the solid-liquid transition.

In turn, `O=C(O)c1nc(Cl)cc(N2CCCC2)c1Cl` [Compound 36, 4-pyrrolidino-3,6-dichloropyridine-2-carboxylic acid] yielded a melting point of 153 to 155 °C. Further, the pest or weed control at 125 ppm in series [1] amounted to 40%. In addition, in series [2], the pest or weed control at 125 ppm was 50%. Moreover, in series [3], the pest or weed control at 125 ppm was 80%. Besides, in series [4], the pest or weed control at 560 ppm stood at 95%. For the same compound, the pest or weed control at 560 ppm in series [5] amounted to 80%. In addition, the pest or weed control at 560 ppm in series [6] was determined as 80%.

As to `O=C(O)c1nc(Cl)cc([N+](=O)[O-])c1Cl` [Compound 39, 4-Nitro-3,6-dichloropyridine-2-carboxylic acid], the melting point was in the range of 192 to 193 °C. The pest or weed control at 125 ppm in series [1] came to 30%. Further, the pest or weed control at 125 ppm in series [2] came to 85%. In addition, the pest or weed control at 125 ppm in series [3] was 90%. Further, the pest or weed control at 560 ppm in series [4] stood at 100%. Besides, the pest or weed control at 560 ppm in series [5] was 100%. Further, the pest or weed control at 560 ppm in series [6] worked out at 100%.

For `Nc1cc(Cl)nc(C(=O)O)c1Br` [Compound 44, 4-Amino-3-bromo-6-chloropyridine-2-carboxylic acid], the melting point is 175 °C (dec.). Besides, the pest or weed control at 125 ppm in series [1] is 90%. Further, the pest or weed control at 125 ppm in series [2] was 90%. Also, the pest or weed control at 125 ppm in series [3] was 95%. Moreover, in series [4], the pest or weed control at 560 ppm is 100%. Further, in series [5], the pest or weed control at 560 ppm turned out to be 100%. The pest or weed control at 560 ppm in series [6] amounted to 100%.

`Nc1c(Cl)c(C(=O)O)nc(C(F)(F)F)c1Cl` [Compound 45, 4-Amino-3,5-dichloro-6-trifluoromethylpyridine-2-carboxylic acid]: the melting point was 178 °C (dec.). The pest or weed control at 250 ppm in series [1] was 0%. Moreover, the pest or weed control at 250 ppm in series [2] stood at 90%. Moreover, the pest or weed control at 250 ppm in series [3] is 80%. In series [4] (rate 125 ppm), the pest or weed control at 125 ppm was determined as 90%. The pest or weed control at 125 ppm in series [5] (rate 125 ppm) worked out at 100%. In series [6] (rate 125 ppm), the pest or weed control at 125 ppm was 100%.

For the compound `Nc1cc(Oc2cc(Cl)cc(Cl)c2)nc(C(=O)O)c1Cl` [Compound 47, 4-Amino-3-chloro-6-(3,5-dichlorophenoxy)pyridine-2-carboxylic acid], the melting point was found to be 196 °C. In addition, in series [1], the pest or weed control at 250 ppm came to 100%. In addition, in series [2], the pest or weed control at 250 ppm amounted to 100%. Moreover, in series [3], the pest or weed control at 250 ppm stood at 100%. Moreover, in series [4], the pest or weed control at 280 ppm came to 95%. In addition, in series [5], the pest or weed control at 280 ppm was 0%. The pest or weed control at 280 ppm in series [6] came to 100%.

`Nc1cc(Oc2ccccc2)nc(C(=O)O)c1Cl` [Compound 48, 4-amino-3-chloro-6-phenoxypyridine-2-carboxylic acid] yielded a melting point of 178 °C. Also, the pest or weed control at 250 ppm in series [1] amounted to 60%. Also, the pest or weed control at 250 ppm in series [2] is 100%. Also, the pest or weed control at 250 ppm in series [3] came to 100%. Moreover, the pest or weed control at 280 ppm in series [4] is 100%. In addition, the pest or weed control at 280 ppm in series [5] turned out to be 100%. The pest or weed control at 280 ppm in series [6] came out at 30%.

Compound `COc1ccc(Oc2cc(N)c(Cl)c(C(=O)O)n2)cc1` [Compound 49, 4-amino-3-chloro-6-(4-methoxyphenoxy)-pyridine-2-carboxylic acid] had a melting point of 174 °C. Also, the pest or weed control at 250 ppm in series [1] worked out at 0%. Further, the pest or weed control at 250 ppm in series [2] amounted to 60%. Further, the pest or weed control at 250 ppm in series [3] stood at 70%. Besides, in series [4], the pest or weed control at 70 ppm worked out at 0%. In addition, in series [5], the pest or weed control at 70 ppm came out at 0%. Further, in series [6], the pest or weed control at 70 ppm is 0%.

`Cc1ccc(Oc2cc(N)c(Cl)c(C(=O)O)n2)cc1` [Compound 50, 4-amino-3-chloro-6-(4-methylphenoxy)-pyridine-2-carboxylic acid] came in with a melting point of 173 °C. In series [1], the pest or weed control at 250 ppm was 0%. Besides, in series [2], the pest or weed control at 250 ppm was found to be 60%. In addition, the pest or weed control at 250 ppm in series [3] amounted to 70%. Moreover, the pest or weed control at 70 ppm in series [4] came out at 0%. Moreover, the pest or weed control at 70 ppm in series [5] was 0%. In series [6], the pest or weed control at 70 ppm amounted to 0%.

`Cc1cccc(Oc2cc(N)c(Cl)c(C(=O)O)n2)c1` [Compound 52, 4-amino-3-chloro-6-(3-methylphenoxy)-pyridine-2-carboxylic acid] yielded a melting point of 169 °C. In series [1], the pest or weed control at 250 ppm worked out at 20%. Also, the pest or weed control at 250 ppm in series [2] turned out to be 70%. For the same compound, the pest or weed control at 250 ppm in series [3] came out at 90%. Further, the pest or weed control at 560 ppm in series [4] amounted to 50%. In addition, the pest or weed control at 560 ppm in series [5] is 70%. Moreover, the pest or weed control at 560 ppm in series [6] worked out at 20%.

In turn, `Nc1cc(Oc2cccc(Cl)c2)nc(C(=O)O)c1Cl` [Compound 53, 4-amino-3-chloro-6-(3-chlorophenoxy)-pyridine-2-carboxylic acid] had a melting point of 176 °C. In series [1], the pest or weed control at 250 ppm stood at 100%. The pest or weed control at 250 ppm in series [2] worked out at 100%. Also, the pest or weed control at 250 ppm in series [3] was determined as 100%. In addition, the pest or weed control at 560 ppm in series [4] worked out at 100%. In addition, the pest or weed control at 560 ppm in series [5] turned out to be 100%. Moreover, the pest or weed control at 560 ppm in series [6] came to 0%.
